From patent US8658599B2, “Peptide for the prophylactic or therapeutic treatment of skin tumors in initial stages” (Digna Biotech, S.L., priority 2009, dated 2014)
Where no end group is shown, it is not given here.

Key:
[1] = target: T1, TGF-β1 (Homo sapiens, UniProt P01137); details: shown previously, WO 00/31135; cited from earlier work
T1 construct: host or cells: My-1-Lu cell line (so in the source)

[2] = test system: skin tumors in mice initiated with DMBA; experiment: Tumor-promoting effect: TPA replaced by disitertide cream in DMBA-initiated mice; assay type: in vivo, Swiss albino mice; details: group 2
Experimental: The tumors were induced on the shaved dorsal skin of mice aged 6-8 weeks through a single topical application of DMBA (32 μg in 200 μl of acetone), followed by treatment twice a week with 12.5 μg of TPA in 200 μl of acetone (10^−4 M) for 12 weeks. In addition, groups of mice were treated with a topical formulation in the form of cream that contained disitertide or not, as specified below. Each week the number of tumors bigger than 2 mm in diameter were recorded in each mouse. At the end of the experiment, the animals were anesthetized and killed (32 weeks after the initiation with DMBA), and the tumors were fixed in 10% formaldehyde and embedded in paraffin for the histological studies.
(§1) In order to test the possible tumor-promoting effect of disitertide, TPA was replaced by a treatment with a topical formulation cream containing disitertide (group 2, consisting of 5 animals) or with vehicle only (group 1, consisting of 5 mice) during the promotion phase of chemical carcinogenesis. Similarly, the possible carcinogenic activity of disitertide was analyzed in a group of 5 mice by repeated applications of disitertide every 2 days for 23 weeks. Since papillomas appear at around 7-8 weeks post-initiation, mice initiated with DMBA and promoted with TPA were further treated with disitertide every 2 days for 4 and 12 weeks (groups 5 and 6, respectively, 10 animals each), in order to test whether disitertide could prevent skin carcinogenesis. Treatment with disitertide started in the same week in which mice were initiated with DMBA (week 0), and applications with this and TPA were performed on alternate days. As a control, a group of mice (group 4, consisting of 5 animals) were treated with vehicle only (control cream) for 12 weeks. Finally, a group of animals with tumors (group 7, consisting of 10 animals) were treated with disitertide every 2 days for 20 weeks from week 12 to week 32 after initiation with DMBA. This group of mice was included in order to test a possible anti-tumor effect of the peptide. Disitertide was applied at a dose of 60 μg in 200 μl of the topical formulation as cream, except for mice of group 7 in which the dose of disitertide was increased up to 120 μg (in 400 μl of cream).

[3] = test system: normal skin; set-up: species or system mice; details: mouse, in vivo
Experimental: as §1, with “Disitertide was applied at a dose of 60 μg in 200 μl of the topical formulation as cream, except for mice of group 7 in which the dose of disitertide was increased up to 120 μg (in 400 μl of cream).” left out

T1 sequence (P01137 279-390 limits assumed, species assumed): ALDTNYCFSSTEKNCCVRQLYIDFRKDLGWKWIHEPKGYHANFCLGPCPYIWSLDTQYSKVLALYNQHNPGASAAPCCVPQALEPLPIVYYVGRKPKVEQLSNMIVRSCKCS

| Substance | Capacity to act as TGF-β1 inhibitor [1] | Mean number of tumors per mouse at week 10 post-initiation ([2]; DMBA initiation, disitertide cream as promoter instead of TPA, 12 weeks, tumors >2 mm, week 10) | Mean number of tumors per mouse at week 14 post-initiation ([2]; DMBA initiation, disitertide cream as promoter instead of TPA, 12 weeks, tumors >2 mm, week 14) | Mean number of tumors per mouse at week 25 post-initiation ([2]; DMBA initiation, disitertide cream as promoter instead of TPA, 12 weeks, tumors >2 mm, week 25) | Mean number of tumors per mouse at week 32 post-initiation ([2]; DMBA initiation, disitertide cream as promoter instead of TPA, 12 weeks, tumors >2 mm, week 32) | Tumor induction when disitertide replaces TPA as promoter ([2]; DMBA-initiated mice promoted with disitertide cream for 12 weeks) | Effect on normal skin after repeated applications [3] |
| --- | --- | --- | --- | --- | --- | --- | --- |
| P54: mammal homologue peptide of disitertide, SEQ ID NO: 2, amino acids 731-742 of rat type III receptor of TGF-β1 (TSLDATMIWTMM; P54 peptide) | act as TGF-β1 inhibitors | – | – | – | – | – | – |
| TSLDASIIWAMMQN [disitertide] | – | 0.0 | 0.0 | 0.0 | 0.0 | no tumors were induced | no deleterious effect on normal skin |
